Test results reported in DBAASP.
Converted amounts (≈) assume the structure as drawn. Blank lines part the entries; values can stand above or below the molecule they belong to.

Assays:
Assay in all cases: ≥ marks a high value that may be exact or a test limit, other limits are often not marked, values filed in µg/mL are converted to µM
Pseudomonas aeruginosa = system: Pseudomonas aeruginosa
Escherichia coli 55B5 = system: Escherichia coli 55B5
Salmonella typhimurium = system: Salmonella typhimurium
Escherichia coli UB1005 = system: Escherichia coli UB1005
Staphylococcus aureus = system: Staphylococcus aureus
Lactococcus garvieae = system: Lactococcus garvieae
[1] = system: Enterobacter cloacae BCRC 10401
[2] = system: Staphylococcus aureus BCRC 10781
[3] = system: Pseudomonas aeruginosa BCRC 10944
[4] = system: Vibrio anguillarum serotype O1
[5] = system: Staphylococcus aureus BCRC 10780
[6] = system: Staphylococcus xylosus BCRC 12930
[7] = system: Listeria monocytogenes BCRC 14845
Streptococcus iniae = system: Streptococcus iniae
[8] = system: Yersinia enterocolitica BCRC 13999
Escherichia coli = system: Escherichia coli
[9] = system: Klebsiella aerogenes BCRC 10370
[10] = system: Escherichia coli BCRC 10675
[11] = system: Vibrio parahaemolyticus BCRC 10806
Vibrio harveyi = system: Vibrio harveyi
Vibrio alginolyticus = system: Vibrio alginolyticus
[12] = system: Streptococcus equinus BCRC 14729
[13] = system: Vibrio alginolyticus BCRC 12829
[14] = system: Klebsiella oxytoca BCRC 13985
Vibrio parahaemolyticus = system: Vibrio parahaemolyticus
[15] = system: Streptococcus mutans UA159
[16] = system: Pseudomonas aeruginosa PAK
[17] = system: Streptococcus gordonii Challis DL1
[18] = system: Streptococcus sanguinis NY101
[19] = system: Streptococcus mitis ATCC 903
[20] = system: Escherichia coli ESBL 63103
[21] = system: Enterococcus faecalis f43559
[22] = system: Staphylococcus aureus ATCC 25923
[23] = system: Pseudomonas aeruginosa PAO1 H103
[24] = system: Enterococcus faecalis ATCC 29212
[25] = system: Pseudomonas aeruginosa 213
Pseudomonas aeruginosa 9 = system: Pseudomonas aeruginosa 9
[26] = system: Pseudomonas aeruginosa H1030
[27] = system: Enterococcus faecium t62764
[28] = system: Enterococcus faecium mic80
[29] = system: Enterococcus faecalis W61950
[30] = system: Enterobacter cloacae 218R
[31] = system: Klebsiella pneumoniae ESBL 61962
[32] = system: Pseudomonas aeruginosa H1027
[33] = system: Klebsiella pneumoniae ESBL 63575
[34] = system: Pseudomonas aeruginosa 198
[35] = system: Staphylococcus aureus C623
[36] = system: Stenotrophomonas maltophilia ATCC 13637
[37] = system: Pseudomonas aeruginosa LES400
[38] = system: Escherichia coli ESBL 64771

MIC (Pseudomonas aeruginosa): 4.5 µM (≈ 11.2 µg/mL)
MIC (Escherichia coli 55B5): 2 µM (≈ 4.99 µg/mL)
MIC (Salmonella typhimurium): 6 µM (≈ 15 µg/mL)
MIC (Escherichia coli UB1005): 2.5 µM (≈ 6.23 µg/mL)
MIC (Staphylococcus aureus): 25 µM (≈ 62.3 µg/mL)
Compound: CC[C@H](C)[C@H](NC(=O)[C@H](C)N)C(=O)N[C@@H](Cc1cnc[nH]1)C(=O)N[C@@H](CCCCN)C(=O)N[C@@H](CC(C)C)C(=O)N[C@@H](C)C(=O)N[C@@H](Cc1cnc[nH]1)C(=O)N[C@@H](CCCCN)C(=O)N[C@@H](CC(C)C)C(=O)N[C@@H](CC(C)C)C(=O)N[C@@H](CCCCN)C(=O)N[C@@H](CCCCN)C(=O)N[C@@H](CC(C)C)C(=O)N[C@@H](CC(C)C)C(=O)N[C@@H](CCCCN)C(=O)N[C@@H](C)C(=O)N[C@H](C(=O)N[C@@H](CCCCN)C(=O)N[C@@H](CCCCN)C(=O)N[C@@H](CC(C)C)C(=O)N[C@@H](C)C(=O)N[C@@H](CCCCN)C(=O)O)C(C)C [AIHKLAHKLLKKLLKAVKKLAK]

MIC (Pseudomonas aeruginosa): 12.5 µM (≈ 31 µg/mL)
MIC (Escherichia coli 55B5): 10.5 µM (≈ 26.1 µg/mL)
MIC (Salmonella typhimurium): 10.5 µM (≈ 26.1 µg/mL)
MIC (Escherichia coli UB1005): 12.5 µM (≈ 31 µg/mL)
Compound: CC[C@H](C)[C@H](NC(=O)[C@H](C)N)C(=O)N[C@@H](Cc1cnc[nH]1)C(=O)N[C@@H](CCCCN)C(=O)N[C@@H](CC(C)C)C(=O)N[C@@H](C)C(=O)N[C@@H](Cc1cnc[nH]1)C(=O)N[C@@H](CCCCN)C(=O)N[C@@H](CC(C)C)C(=O)N[C@H](C(=O)N[C@@H](CCCCN)C(=O)N[C@@H](CCCCN)C(=O)N[C@H](C(=O)N[C@@H](CC(C)C)C(=O)N[C@@H](CCCN=C(N)N)C(=O)N[C@@H](C)C(=O)N[C@H](C(=O)N[C@@H](CCCCN)C(=O)N[C@@H](CCCCN)C(=O)N[C@@H](CC(C)C)C(=O)N[C@@H](C)C(=O)N[C@@H](CC(N)=O)C(=O)O)C(C)C)[C@@H](C)O)[C@@H](C)O [AIHKLAHKLTKKTLRAVKKLAN]

MIC (Lactococcus garvieae): ≥ 56.7 µM
MIC [1]: 3.55 µM (≈ 8 µg/mL)
MIC [2]: 7.09 µM (≈ 16 µg/mL)
MIC [3]: 7.09 µM (≈ 16 µg/mL)
MIC [4]: 3.55 µM (≈ 8 µg/mL)
MIC [5]: 7.09 µM (≈ 16 µg/mL)
MIC [6]: 3.55 µM (≈ 8 µg/mL)
MIC [7]: 3.55 µM (≈ 8 µg/mL)
MIC (Streptococcus iniae): ≥ 56.7 µM
MIC [8]: 28.4 µM (≈ 64 µg/mL)
MIC (Escherichia coli): 14.2 µM (≈ 32 µg/mL)
MIC [9]: 3.55 µM (≈ 8 µg/mL)
MIC [10]: 7.09 µM (≈ 16 µg/mL)
MIC (Vibrio harveyi): 3.55 µM (≈ 8 µg/mL)
MIC (Vibrio alginolyticus): 3.55 µM (≈ 8 µg/mL)
MIC [12]: ≥ 56.7 µM
MIC [13]: 28.4 µM (≈ 64 µg/mL)
MIC [14]: 14.2 µM (≈ 32 µg/mL)
Compound: CC[C@H](C)[C@H](NC(=O)[C@H](Cc1ccccc1)NC(=O)[C@H](CCCCN)NC(=O)[C@H](CCCCN)NC(=O)[C@H](C)NC(=O)[C@@H](NC(=O)[C@@H](NC(=O)[C@H](C)NC(=O)[C@H](Cc1ccccc1)NC(=O)[C@H](CCCCN)NC(=O)[C@H](CCCCN)NC(=O)[C@H](C)NC(=O)[C@H](C)NC(=O)[C@H](CC(N)=O)NC(=O)[C@H](C)NC(=O)CN)[C@@H](C)O)[C@@H](C)CC)C(=O)N[C@@H](CC(N)=O)C(=O)N[C@@H](Cc1ccc(O)cc1)C(=O)N[C@@H](CC(C)C)C(=O)N[C@@H](Cc1c[nH]c2ccccc12)C(=O)O [GANAAKKFATIAKKFINYLW]
MIC [11]: 28.4 µM (≈ 64 µg/mL)
MIC (Vibrio parahaemolyticus): 1.77 µM (≈ 4 µg/mL)

MIC [15]: 2.54 µM (≈ 8 µg/mL)
MIC [16]: 10.1 µM (≈ 32 µg/mL)
MIC [17]: 5.07 µM (≈ 16 µg/mL)
MIC [18]: 5.07 µM (≈ 16 µg/mL)
MIC (Staphylococcus aureus): 10.1 µM (≈ 32 µg/mL)
MIC [19]: 10.1 µM (≈ 32 µg/mL)
Compound: CC[C@H](C)[C@H](NC(=O)[C@H](Cc1ccccc1)NC(=O)CNC(=O)CNC(=O)[C@H](CO)NC(=O)[C@H](Cc1ccccc1)NC(=O)[C@H](CCC(N)=O)NC(=O)[C@H](CCCCN)NC(=O)[C@H](CC(C)C)NC(=O)[C@H](CC(C)C)NC(=O)[C@H](CCCCN)NC(=O)[C@H](CC(C)C)NC(=O)[C@H](CC(C)C)NC(=O)[C@H](CCC(N)=O)NC(=O)[C@H](CCCCN)NC(=O)[C@H](CC(C)C)NC(=O)[C@H](CC(C)C)NC(=O)[C@H](CCC(N)=O)NC(=O)[C@@H](N)CC(C)C)C(=O)N[C@@H](CCCCN)C(=O)N[C@@H](Cc1cnc[nH]1)C(=O)N[C@@H](Cc1ccccc1)C(=O)N[C@H](C(=O)N[C@@H](Cc1cnc[nH]1)C(=O)N[C@@H](CCCN=C(N)N)C(=O)N[C@@H](Cc1ccccc1)C(N)=O)[C@@H](C)CC [LQLLKQLLKLLKQFSGGFIKHFIHRF]

MIC [20]: 2.65 µM (≈ 3.9 µg/mL)
MIC [21]: ≥ 42.1 µM
MIC [22]: 1.36 µM (≈ 2 µg/mL)
MIC [23]: 1.36 µM (≈ 2 µg/mL)
MIC [24]: 10.9 µM (≈ 16 µg/mL)
MIC [25]: 10.9 µM (≈ 16 µg/mL)
MIC (Pseudomonas aeruginosa 9): 5.5 µM (≈ 8.1 µg/mL)
MIC [26]: 5.5 µM (≈ 8.1 µg/mL)
MIC [27]: 0.611 µM (≈ 0.9 µg/mL)
MIC [28]: 2.65 µM (≈ 3.9 µg/mL)
MIC [29]: ≥ 42.1 µM
MIC [30]: 2.65 µM (≈ 3.9 µg/mL)
MIC [31]: 21 µM (≈ 31 µg/mL)
MIC [32]: 0.136 µM (≈ 0.2 µg/mL)
MIC [33]: 5.02 µM (≈ 7.4 µg/mL)
MIC [34]: 5.5 µM (≈ 8.1 µg/mL)
MIC [35]: 1.36 µM (≈ 2 µg/mL)
MIC [36]: 0.34 µM (≈ 0.5 µg/mL)
MIC [37]: 2.65 µM (≈ 3.9 µg/mL)
MIC [38]: 1.36 µM (≈ 2 µg/mL)
Compound: CC(C)C[C@H](NC(=O)[C@H](Cc1c[nH]c2ccccc12)NC(=O)[C@H](Cc1c[nH]c2ccccc12)NC(=O)[C@H](CCCCN)NC(=O)[C@H](Cc1c[nH]c2ccccc12)NC(=O)[C@H](CCCN=C(N)N)NC(=O)[C@H](CCCN=C(N)N)NC(=O)[C@H](Cc1c[nH]c2ccccc12)NC(=O)[C@@H](N)CCCN=C(N)N)C(=O)O [RWRRWKWWL]
